Laboratory results from US9242970B2 (ACTELION PHARMACEUTICALS LTD., priority 2010, dated 2016).
pIC50: −log10 of the molar value. Where two headings read alike, the source gives them in different places.

How the values were obtained:
human orexin-1 receptor = human orexin-1 receptor (Homo sapiens (Human), UniProt O43613); assay: In vitro assay: intracellular calcium measurements (FLIPR), antagonistic activity; assay type: cell-based; settings: CHO cells, 3 nM orexin-A, marked values are geometric means of n = 2-6, read-out: IC50 OX1
Sequence of human orexin-1 receptor (O43613 whole entry): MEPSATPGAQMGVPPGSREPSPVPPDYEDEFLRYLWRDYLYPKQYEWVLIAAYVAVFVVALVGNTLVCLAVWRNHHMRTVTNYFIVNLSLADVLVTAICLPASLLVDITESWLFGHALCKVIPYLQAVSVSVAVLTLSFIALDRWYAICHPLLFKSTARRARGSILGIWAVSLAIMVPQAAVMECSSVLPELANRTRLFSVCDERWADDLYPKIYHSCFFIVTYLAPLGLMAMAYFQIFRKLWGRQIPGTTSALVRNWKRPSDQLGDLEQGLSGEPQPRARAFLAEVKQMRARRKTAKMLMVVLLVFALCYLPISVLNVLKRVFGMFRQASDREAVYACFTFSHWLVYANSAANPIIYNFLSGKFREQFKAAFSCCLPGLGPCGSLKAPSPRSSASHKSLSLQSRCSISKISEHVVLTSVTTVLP

human orexin-2 receptor = human orexin-2 receptor (Homo sapiens (Human), UniProt O43614); assay: as above; assay type: cell-based; settings: CHO cells, 3 nM orexin-A, marked values are geometric means of n = 2-6, read-out: IC50 OX2
Sequence of human orexin-2 receptor (O43614 whole entry): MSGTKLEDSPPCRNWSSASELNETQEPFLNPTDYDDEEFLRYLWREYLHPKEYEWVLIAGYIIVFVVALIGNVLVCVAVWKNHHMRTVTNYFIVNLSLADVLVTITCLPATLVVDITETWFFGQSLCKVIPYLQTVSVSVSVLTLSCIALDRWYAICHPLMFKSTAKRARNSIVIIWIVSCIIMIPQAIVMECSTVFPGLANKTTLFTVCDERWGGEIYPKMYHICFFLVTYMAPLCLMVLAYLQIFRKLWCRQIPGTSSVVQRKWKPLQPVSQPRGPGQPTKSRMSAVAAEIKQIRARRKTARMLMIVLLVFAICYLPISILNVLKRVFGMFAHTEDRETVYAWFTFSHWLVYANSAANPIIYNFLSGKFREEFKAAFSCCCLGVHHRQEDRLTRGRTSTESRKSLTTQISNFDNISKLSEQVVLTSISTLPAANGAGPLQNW

[1] = compound incubation time of 10 min

| SMILES | pIC50 (human orexin-1 receptor; [1]) | pIC50 (human orexin-2 receptor; [1]) | pIC50 (human orexin-1 receptor; compound incubation 120 min) | pIC50 (human orexin-2 receptor; compound incubation 120 min) |
| --- | --- | --- | --- | --- |
| CCOc1ccccc1C1CCC(=O)N1Cc1ccc(OC(F)(F)F)cc1 (centres unmarked) [Example 195, 5-(2-ethoxyphenyl)-1-(4-(trifluoromethoxy)benzyl)pyrrolidin-2-one] | 6.09 | 6.62 | – | – |
| COc1cccc(OC)c1C1CCC(=O)N1Cc1ccc(OC(F)(F)F)cc1 (centres unmarked) [Example 196, 5-(2,6-dimethoxyphenyl)-1-(4-(trifluoromethoxy)benzyl)pyrrolidin-2-one] | 6.14 | 6.80 | – | – |
| COc1cccc(OC)c1C1CCC(=O)N1Cc1ccc(F)cc1 (centres unmarked) [Example 197, 5-(2,6-dimethoxyphenyl)-1-(4-fluorobenzyl)pyrrolidin-2-one] | < 4.98 | 5.88 | – | – |
| COc1cccc(OC)c1C1CC(C)C(=O)N1Cc1cccc(OC(F)F)c1 (centres unmarked) [Example 198, 1-(3-(difluoromethoxy)benzyl)-5-(2,6-dimethoxyphenyl)-3-methylpyrrolidin-2-one] | 6.93 | 7.02 | – | – |
| COc1cccc(OC)c1C1CC(C)C(=O)N1Cc1ccc(OC(F)F)nc1 (centres unmarked) [Example 199, 1-((6-(difluoromethoxy)pyridin-3-yl)methyl)-5-(2,6-dimethoxyphenyl)-3-methylpyrrolidin-2-one] | 6.45 | 6.21 | – | – |
| COc1cccc(OC)c1C1CC(C)C(=O)N1Cc1cccc(OC(F)(F)F)c1 (centres unmarked) [Example 200, 5-(2,6-dimethoxyphenyl)-3-methyl-1-(3-(trifluoromethoxy)benzyl)pyrrolidin-2-one] | 6.97 | 6.97 | – | – |
| COc1cccc(OC)c1C1CC(C)C(=O)N1Cc1cccc(OC(F)F)n1 (centres unmarked) [Example 201, 1-((6-(difluoromethoxy)pyridin-2-yl)methyl)-5-(2,6-dimethoxyphenyl)-3-methylpyrrolidin-2-one] | 6.02 | 6.72 | – | – |
| COc1cccc(OC)c1C1CC(C)C(=O)N1Cc1ccnc(OC(F)F)c1 (centres unmarked) [Example 202, 1-((2-(difluoromethoxy)pyridin-4-yl)methyl)-5-(2,6-dimethoxyphenyl)-3-methylpyrrolidin-2-one] | 6.65 | 6.03 | – | – |
| CCC(c1ccc(OC(F)(F)F)cc1)N1C(=O)C(C)CC1c1c(OC)cccc1OC (centres unmarked) [Example 203, 5-(2,6-dimethoxyphenyl)-3-methyl-1-(1-(4-(trifluoromethoxy)phenyl)propyl)pyrrolidin-2-one] | 6.35 | 5.93 | – | – |
| COc1cccc(OC)c1C1CC(C)C(=O)N1Cc1cc(OC(F)F)ccn1 (centres unmarked) [Example 204, 1-((4-(difluoromethoxy)pyridin-2-yl)methyl)-5-(2,6-dimethoxyphenyl)-3-methylpyrrolidin-2-one] | 5.20 | 5.90 | – | – |
| CCOc1ccc(CN2C(=O)CCCC2c2c(OC)cccc2OC)cc1 (centres unmarked) [Example 205, 6-(2,6-dimethoxyphenyl)-1-(4-ethoxybenzyl)piperidin-2-one] | 6.69 | 7.19 | – | – |
| COc1cccc(OC)c1C1CCCC(=O)N1Cc1ccc(OC(C)C)cc1 (centres unmarked) [Example 206, 6-(2,6-dimethoxyphenyl)-1-(4-isopropoxybenzyl)piperidin-2-one] | 6.42 | 7.80 | – | – |
| CCCOc1ccc(CN2C(=O)CCCC2c2c(OC)cccc2OC)cc1 (centres unmarked) [Example 207, 6-(2,6-dimethoxyphenyl)-1-(4-propoxybenzyl)piperidin-2-one] | 6.77 | 7.46 | – | – |
| COc1cccc(OC)c1C1CCCC(=O)N1Cc1ccc(OCC2CC2)cc1 (centres unmarked) [Example 208, 1-(4-(cyclopropylmethoxy)benzyl)-6-(2,6-dimethoxyphenyl)piperidin-2-one] | 5.95 | 7.41 | – | – |
| COc1cccc(OCCCO)c1C1CCCC(=O)N1Cc1ccc(OC(F)(F)F)cc1 (centres unmarked) [Example 209, 6-(2-(3-hydroxypropoxy)-6-methoxyphenyl)-1-(4-(trifluoromethoxy)benzyl)piperidin-2-one] | 5.97 | 6.54 | – | – |
| COc1cccc(OCC2CC2)c1C1CCCC(=O)N1Cc1ccc(OC(F)(F)F)cc1 (centres unmarked) [Example 210, 6-(2-(cyclopropylmethoxy)-6-methoxyphenyl)-1-(4-(trifluoromethoxy)benzyl)piperidin-2-one] | 5.59 | 5.38 | – | – |
| COCCOc1cccc(OC)c1C1CCCC(=O)N1Cc1ccc(OC(F)(F)F)cc1 (centres unmarked) [Example 211, 6-(2-methoxy-6-(2-methoxyethoxy)phenyl)-1-(4-(trifluoromethoxy)benzyl)piperidin-2-one] | 5.56 | 6.18 | – | – |
| CCOc1cccc(OC)c1C1CCCC(=O)N1Cc1ccc(OC(F)(F)F)cc1 (centres unmarked) [Example 212, 6-(2-ethoxy-6-methoxyphenyl)-1-(4-(trifluoromethoxy)benzyl)piperidin-2-one] | 6.67 | 7.43 | – | – |
| COc1cccc(OCCO)c1C1CCCC(=O)N1Cc1ccc(OC(F)(F)F)cc1 (centres unmarked) [Example 213, 6-(2-(2-hydroxyethoxy)-6-methoxyphenyl)-1-(4-(trifluoromethoxy)benzyl)piperidin-2-one] | 5.86 | 7.07 | – | – |

| SMILES | pIC50 (human orexin-1 receptor; [1]) | pIC50 (human orexin-2 receptor; [1]) | pIC50 (human orexin-1 receptor; compound incubation 120 min) | pIC50 (human orexin-2 receptor; compound incubation 120 min) |
| --- | --- | --- | --- | --- |
| COc1cccc(OCC(O)CO)c1C1CCCC(=O)N1Cc1ccc(OC(F)(F)F)cc1 (centres unmarked) [Example 214, 6-(2-(2,3-dihydroxypropoxy)-6-methoxyphenyl)-1-(4-(trifluoromethoxy)benzyl)piperidin-2-one] | 5.45 | 6.13 | – | – |
| COc1cccc(OC)c1C1CCC(C)(C)C(=O)N1Cc1ccc(OC(F)(F)F)cc1 (centres unmarked) [Example 215, 6-(2,6-dimethoxyphenyl)-3,3-dimethyl-1-(4-(trifluoromethoxy)benzyl)piperidin-2-one] | 5.85 | 5.89 | – | – |
| COc1cccc(OC)c1C1CCC(C)C(=O)N1Cc1ccc(OC(F)(F)F)cc1 (centres unmarked) [Example 216, 6-(2,6-dimethoxyphenyl)-3-methyl-1-(4-(trifluoromethoxy)benzyl)piperidin-2-one] | 7.40 | 6.05 | – | – |
| COc1cccc(OC)c1C1CC(C)(C)C(=O)N1Cc1ccc(OC(F)(F)F)cc1 (centres unmarked) [Example 217, 5-(2,6-dimethoxyphenyl)-3,3-dimethyl-1-(4-(trifluoromethoxy)benzyl)pyrrolidin-2-one] | 7.66 | 6.60 | – | – |
| COc1cccc(OC)c1C1CCCC(=O)N1Cc1ccnc(-c2nccs2)c1 (centres unmarked) [Example 219, 6-(2,6-dimethoxyphenyl)-1-((2-(thiazol-2-yl)pyridin-4-yl)methyl)piperidin-2-one] | – | – | 7.72 | 8.05 |
| COc1cccc(Cl)c1C1CCCC(=O)N1Cc1ccc(OC(F)(F)F)cc1 (centres unmarked) [Example 221, 6-(2-chloro-6-methoxyphenyl)-1-(4-(trifluoromethoxy)benzyl)piperidin-2-one] | 5.31 | 6.81 | – | – |
| COc1cccc(C)c1C1CCCC(=O)N1Cc1ccc(OC(F)(F)F)cc1 (centres unmarked) [Example 222, 6-(2-methoxy-6-methylphenyl)-1-(4-(trifluoromethoxy)benzyl)piperidin-2-one] | 5.36 | 6.57 | – | – |
| COc1cccc(C(F)(F)F)c1C1CCCC(=O)N1Cc1ccc(OC(F)(F)F)cc1 (centres unmarked) [Example 223, 6-(2-methoxy-6-(trifluoromethyl)phenyl)-1-(4-(trifluoromethoxy)benzyl)piperidin-2-one] | < 4.67 | 5.53 | – | – |
| O=C1CCCC(c2c(F)cccc2F)N1Cc1ccc(OC(F)(F)F)cc1 (centres unmarked) [Example 224, 6-(2,6-difluorophenyl)-1-(4-(trifluoromethoxy)benzyl)piperidin-2-one] | 5.50 | 5.61 | – | – |
| COc1cc(F)c(C2CCCC(=O)N2Cc2ccc(OC(F)(F)F)cc2)c(F)c1 (centres unmarked) [Example 225, 6-(2,6-difluoro-4-methoxyphenyl)-1-(4-(trifluoromethoxy)benzyl)piperidin-2-one] | 5.38 | 5.26 | – | – |
| Cc1ccc(F)c(C2CCCC(=O)N2Cc2ccc(OC(F)(F)F)cc2)c1F (centres unmarked) [Example 226, 6-(2,6-difluoro-3-methylphenyl)-1-(4-(trifluoromethoxy)benzyl)piperidin-2-one] | 5.29 | 5.61 | – | – |
| O=C1CCCC(c2c(F)cccc2C(F)(F)F)N1Cc1ccc(OC(F)(F)F)cc1 (centres unmarked) [Example 227, 6-(2-fluoro-6-(trifluoromethyl)phenyl)-1-(4-(trifluoromethoxy)benzyl)piperidin-2-one] | 5.46 | 5.23 | – | – |
| O=C1CCCC(c2c(Cl)cccc2Cl)N1Cc1ccc(OC(F)(F)F)cc1 (centres unmarked) [Example 228, 6-(2,6-dichlorophenyl)-1-(4-(trifluoromethoxy)benzyl)piperidin-2-one] | 5.53 | 6.34 | – | – |
| O=C1CCCC(c2c(F)cccc2Cl)N1Cc1ccc(OC(F)(F)F)cc1 (centres unmarked) [Example 229, 6-(2-chloro-6-fluorophenyl)-1-(4-(trifluoromethoxy)benzyl)piperidin-2-one] | 5.54 | 5.92 | – | – |
| COc1cccc(OC(C)C)c1C1CCCC(=O)N1Cc1ccc(OC(F)(F)F)cc1 (centres unmarked) [Example 230, 6-(2-isopropoxy-6-methoxyphenyl)-1-(4-(trifluoromethoxy)benzyl)piperidin-2-one] | 6.44 | 7.07 | – | – |
| COc1cc(F)cc(OC)c1C1CCCC(=O)N1Cc1ccc(OC(F)(F)F)cc1 (centres unmarked) [Example 232, 6-(4-fluoro-2,6-dimethoxyphenyl)-1-(4-(trifluoromethoxy)benzyl)piperidin-2-one] | 6.57 | 7.57 | – | – |
| COc1cc(C)cc(OC)c1C1CCCC(=O)N1Cc1ccc(OC(F)(F)F)cc1 (centres unmarked) [Example 233, 6-(2,6-dimethoxy-4-methylphenyl)-1-(4-(trifluoromethoxy)benzyl)piperidin-2-one] | 6.40 | 6.97 | – | – |
| COc1cc(F)cc(OC)c1C1CCCC(=O)N1Cc1cccc(-c2ccccc2)c1 (centres unmarked) [Example 234, 1-([1,1′-biphenyl]-3-ylmethyl)-6-(4-fluoro-2,6-dimethoxyphenyl)piperidin-2-one] | – | – | 6.58 | 6.63 |
